Data from PMC3431920 (Molecular bioSystems, 2012).

Key:
MCF-7 cells = experiment: MTS cell viability assay, 24h treatment; type: cell-based; conditions: result in words
Water solubility = type: physicochemical; conditions: result in words; method not given

Row | SMILES | cytotoxicity (in words) (MCF-7 cells) | water solubility (Water solubility)
1 | N=C(N)NCCC[C@H](NC(=O)[C@H](CCCNC(=N)N)NC(=O)[C@H](CCCNC(=N)N)NC(=O)[C@H](CCCNC(=N)N)NC(=O)[C@H](CCCNC(=N)N)NC(=O)[C@H](CCCNC(=N)N)NC(=O)[C@H](CCCNC(=N)N)NC(=O)[C@H](CCCNC(=N)N)NC(=O)c1ccc2c(c1)C(=O)OC21c2ccc(O)cc2Oc2cc(O)ccc21)C(N)=O [Construct 1] | minor cytotoxicity | 
2 | C[C@@H](c1ccccc1)N(CC(N)=O)C(=O)CN(C(=O)CN(CCCCN)C(=O)CN(C(=O)CN(C(=O)CN(CCCCN)C(=O)CN(C(=O)CN(C(=O)CN(CCCCN)C(=O)CN(C(=O)CN(C(=O)CN(CCCCN)C(=O)c1ccc2c(c1)C(=O)OC21c2ccc(O)cc2Oc2cc(O)ccc21)[C@@H](C)c1ccccc1)[C@@H](C)c1ccccc1)[C@@H](C)c1ccccc1)[C@@H](C)c1ccccc1)[C@@H](C)c1ccccc1)[C@@H](C)c1ccccc1)[C@@H](C)c1ccccc1 [Construct 4] |  | good water solubility
